Experimental data from ChEMBL document CHEMBL5634071, “Fluorine in anti-HIV drugs approved by FDA from 1981 to 2023” (Eur J Med Chem, 2023).

Experiments:
[1] = tested on: Human immunodeficiency virus 1; assay: Antiviral activity against VSV-G pseudotyped HIV-1 infected in HEK293T cells assessed as inhibition of early stage viral replication preincubated with cells for 30 mins followed by viral infection for 3 hrs and measured 48 hrs after media replacement with compound by luciferase assay; assay type: functional, organism-based; details: Human immunodeficiency virus 1, HEK-293T
[2] = tested on: Human immunodeficiency virus 1; assay: Antiviral activity HIV-1 infected in HEK293T cells assessed as inhibition of late stage viral replication; assay type: functional, organism-based; details: Human immunodeficiency virus 1, HEK-293T
[3] = Cytotoxicity against HEK293T cells incubated for 72 hrs by MTT assay; assay type: toxicity, cell-based, HEK-293T; details: human
[4] = tested on: Human immunodeficiency virus 1; assay: Antiviral activity against HIV-1 infected in human PBMC; assay type: functional, organism-based; details: Human immunodeficiency virus 1, PBMC
[5] = molecular target: Human immunodeficiency virus type 1 Gag protein (Human immunodeficiency virus 1, UniProt Q77YG1); assay: Binding affinity to HIV1 Gag assessed as dissociation constant
[6] = Metabolic stability in rhesus monkey hepatocytes assessed as half-life; assay type: ADME, cell-based, Macaca mulatta, Hepatocyte

Structure (SMILES): CC(C)(C#Cc1ccc(-c2ccc(Cl)c3c(NS(C)(=O)=O)nn(CC(F)(F)F)c23)c([C@H](Cc2cc(F)cc(F)c2)NC(=O)Cn2nc(C(F)(F)F)c3c2C(F)(F)[C@@H]2C[C@H]32)n1)S(C)(=O)=O
- IC50 [1]: 0.055 nM
- IC50 [2]: 0.314 nM
- CC50 at 72 h [3]: > 50000 nM
- IC50 [4]: 0.05 nM
- Kd [5]: 1.1 nM
- half-life [6]: 202 h
